Experimental data from PubChem BioAssay AID248 (DTP/NCI, 2004).
Where “and” joins values, the source holds several entries; their conditions need not be identical. Identical values can stand only once. Toxic doses and inconclusive results are not listed. Cut-off read from the data, not from the text of the source: active = T/C of 150% or more; inactive = T/C below 125%.

System: L1210 leukemia ip in BDF1 mice, survival T/C
Test: NCI In Vivo Anticancer Drug Screen. Data for tumor model L1210 Leukemia (intraperitoneal) in B6D2F1 (BDF1) mice
Conditions: endpoint: mean survival time, higher = longer survival
Method in brief: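 Transplanted-tumor mice were given test agent; controls received vehicle only. Survival readings from the two groups were divided (treated over control).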

[1] = dose: 100.0 mg/kg/injection, schedule: Q04DX003 (ip), vehicle: saline with Tween-80
[2] = dose: 200.0 mg/kg/injection, schedule: Q04DX003 (ip), vehicle: saline with Tween-80
[3] = dose: 400.0 mg/kg/injection, schedule: Q04DX003 (ip), vehicle: saline with Tween-80
[4] = dose: 100.0 mg/kg/injection, schedule: Q01DX009 (ip), vehicle: Klucel (hydroxypropylcellulose) (HPC)
[5] = dose: 100.0 mg/kg/injection, schedule: Q04DX003 (ip), vehicle: Klucel (hydroxypropylcellulose) (HPC)
[6] = dose: 200.0 mg/kg/injection, schedule: Q01DX009 (ip), vehicle: Klucel (hydroxypropylcellulose) (HPC)
[7] = dose: 200.0 mg/kg/injection, schedule: Q04DX003 (ip), vehicle: Klucel (hydroxypropylcellulose) (HPC)
[8] = dose: 400.0 mg/kg/injection, schedule: Q01DX009 (ip), vehicle: Klucel (hydroxypropylcellulose) (HPC)
[9] = dose: 400.0 mg/kg/injection, schedule: Q04DX003 (ip), vehicle: Klucel (hydroxypropylcellulose) (HPC)
[10] = dose: 100.0 mg/kg/injection, schedule: Q01DX009 (ip), vehicle: saline with Tween-80
[11] = dose: 200.0 mg/kg/injection, schedule: Q01DX009 (ip), vehicle: saline with Tween-80
[12] = dose: 100.0 mg/kg/injection, schedule: Q01DX001 (ip), vehicle: saline
[13] = dose: 200.0 mg/kg/injection, schedule: Q01DX001 (ip), vehicle: saline
[14] = dose: 400.0 mg/kg/injection, schedule: Q01DX001 (ip), vehicle: saline

Measured: T/C

CCn1nnc2c(=O)[nH]c(N)nc21
inactive: [1] 105 % of control | [2] 104 % of control | [3] 94 % of control

CS(=O)(=O)OCCN1CCC2(CC1)SSC1(CCN(CCOS(C)(=O)=O)CC1)S2
inactive: dose: 6.25 mg/kg/injection, schedule: Q01DX009 (ip), vehicle: saline 98 % of control | dose: 12.5 mg/kg/injection, schedule: Q01DX009 (ip), vehicle: saline 101 % of control | dose: 12.5 mg/kg/injection, schedule: Q04DX003 (ip), vehicle: saline 108 % of control | dose: 25.0 mg/kg/injection, schedule: Q04DX003 (ip), vehicle: saline 95 % of control

CCN(CC)c1cc(C(C)(C)C)cc(C(C)(C)C)c1
inactive: dose: 100.0 mg/kg/injection, schedule: Q04DX003 (ip), vehicle: saline sonified 114 % of control | dose: 200.0 mg/kg/injection, schedule: Q04DX003 (ip), vehicle: saline sonified 94 % of control | dose: 400.0 mg/kg/injection, schedule: Q04DX003 (ip), vehicle: saline sonified 101 % of control

COc1c(C(=O)Nc2ccc(C3=NCCN3)cc2)cccc1C(=O)Nc1ccc(C2=NCCN2)cc1
inactive: dose: 15.0 mg/kg/injection, schedule: Q01DX Z (ip), vehicle: saline 95 % of control | dose: 30.0 mg/kg/injection, schedule: Q01DX Z (ip), vehicle: saline 101 % of control

CC1CN=C(CCc2ccc(NC(=O)c3ccc(C(=O)Nc4ccc(CCC5=NCC(C)N5)cc4)cc3)cc2)N1 (stereo not drawn)
inactive: dose: 240.0 mg/kg/injection, schedule: Q01DX Z (ip), vehicle: saline 97 % of control | dose: 480.0 mg/kg/injection, schedule: Q01DX Z (ip), vehicle: saline 92 % of control

CN(C)/C=C/C(=O)c1ccccc1[N+](=O)[O-]
inactive: [4] 97 % of control | [5] 100 % of control | [6] 100 % of control | [7] 105 % of control | [8] 103 % of control | [9] 100 % of control

Cc1ccc(-c2nnc3n2C(C)(C)N=C(N)N3)cc1
inactive: [1] 105 % of control | [2] 91 % of control | [3] 101 % of control

O=C1OC(c2ccc([N+](=O)[O-])cc2)=N/C1=C\C=C\c1ccccc1
inactive: [4] 98 % of control | [6] 96 % of control | [8] 103 % of control

C/C(=N/N(C)C)c1ccccn1
inactive: [10] 104 % of control | [1] 91 % of control | [11] 95 % of control | [2] 95 % of control | [3] 106 % of control

C/C=C/C=C\COC(=O)C1CC1
inactive: dose: 100.0 mg/kg/injection, schedule: Q04DX002 (ip), vehicle: saline 116 % of control | dose: 200.0 mg/kg/injection, schedule: Q04DX002 (ip), vehicle: saline 121 % of control

COC(=O)C1OC1c1ccc2c(c1)OCO2 (stereo not drawn)
inactive: dose: 88.8 mg/kg/injection, schedule: Q01DX001 (ip), vehicle: carboxymethylcellulose (CMC) 97 % of control and 98 % of control | dose: 133.4 mg/kg/injection, schedule: Q01DX001 (ip), vehicle: carboxymethylcellulose (CMC) 95 % of control and 106 % of control | dose: 200.0 mg/kg/injection, schedule: Q01DX001 (ip), vehicle: carboxymethylcellulose (CMC) 95 % of control and 97 % of control | dose: 300.0 mg/kg/injection, schedule: Q01DX001 (ip), vehicle: carboxymethylcellulose (CMC) 93 % of control and 101 % of control

CC1(C)CC(=O)N/C1=C\C1NC(=O)CC1(C)C (stereo not drawn)
inactive: [10] 96 % of control | [11] 104 % of control | dose: 400.0 mg/kg/injection, schedule: Q01DX009 (ip), vehicle: saline with Tween-80 102 % of control

Cc1ccc(N2C=[N+](C)c3ccc(C)cc3C2)cc1
inactive: [5] 100 % of control | [7] 97 % of control

CCOC(=O)c1cc(OC)c[nH]1
inactive: dose: 50.0 mg/kg/injection, schedule: Q01DX001 (ip), vehicle: saline 100 % of control | [12] 94 % of control | [13] 88 % of control | [14] 105 % of control

c1ccc2c3c([nH]c2c1)CCCC3
inactive: [4] 97 % of control | [5] 107 % of control | [6] 113 % of control | [7] 105 % of control | [9] 102 % of control

NC(=O)C(=O)NCCCCN1CC1
inactive: dose: 12.5 mg/kg/injection, schedule: Q04DX003 (ip), vehicle: Klucel (hydroxypropylcellulose) (HPC) 97 % of control | dose: 25.0 mg/kg/injection, schedule: Q04DX003 (ip), vehicle: Klucel (hydroxypropylcellulose) (HPC) 97 % of control | dose: 50.0 mg/kg/injection, schedule: Q04DX003 (ip), vehicle: Klucel (hydroxypropylcellulose) (HPC) 102 % of control | [5] 114 % of control

CC(C)(CO)N=Cc1ccc(Cl)cc1Cl
inactive: [12] 93 % of control | [13] 102 % of control | [14] 102 % of control
